Experimental data as given in patent US20240336657A1, “G-ALPHA-S PEPTIDE INHIBITORS AND USES THEREOF” (The Regents of the University of California, priority 2021, published 2024).
Positions of bridges follow the written chain, without caps; N, C: chain ends. Non-standard residues stand in square brackets, D forms with d. Residues, ends and D or L forms follow the SMILES beside them.

Tests used:
GDP-bound Gαi1 = biological target: T1, GDP-bound Gαi1 (Homo sapiens, UniProt P63096); test: Bio-layer interferometry (BLI) binding; conditions: highest concentration tested
T1 construct: hexahistidine (N, cleaved yes); made in house; host or cells: Escherichia coli BL21(DE3)
T1 sequence (P63096 with tags, fused parts or gaps): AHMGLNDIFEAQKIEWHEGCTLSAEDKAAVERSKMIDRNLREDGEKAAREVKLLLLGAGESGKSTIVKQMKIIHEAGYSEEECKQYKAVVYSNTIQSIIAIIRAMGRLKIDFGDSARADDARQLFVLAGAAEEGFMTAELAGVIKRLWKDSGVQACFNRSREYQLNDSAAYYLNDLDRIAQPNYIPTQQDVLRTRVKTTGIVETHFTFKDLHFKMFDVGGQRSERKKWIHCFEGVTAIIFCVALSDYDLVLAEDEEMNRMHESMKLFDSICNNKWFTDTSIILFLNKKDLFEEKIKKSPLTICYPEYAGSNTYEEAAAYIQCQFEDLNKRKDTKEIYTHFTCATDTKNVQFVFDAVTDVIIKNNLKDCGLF
Description: (§1) BLI experiments were performed using an OctetRED384 instrument from ForteBio. All experiments were performed at 25° C. using BLI buffer (10 mM HEPES pH 7.4, 150 mM NaCl, 1 mM MgCl2, 0.05% Tween-20, 0.1% DMSO, 0.2 mM GppNHp or GDP). Cyclic peptides were diluted to a series of concentrations in BLI buffer plus 10 μM Biotin. Assays were conducted in Greiner 384well, black, flat bottom polypropylene plates containing the protein solutions, BLI buffer plus 10 μM Biotin for dissociation, and serial dilutions of cyclic peptides to be tested.
(§2) Biotinylated proteins were immobilized on Streptavidin biosensors by dipping sensors into plate wells containing protein solutions at a concentration of 100-150 nM. Protein loading is around 2-3 nm. Sensors loaded with proteins were moved and dipped into wells with BLI buffer plus 10 μM Biotin to block unlabeled Streptavidin. Association-dissociation cycles of compounds were started by moving and dipping sensors to cyclic peptides dilutions and BLI buffer plus 10 μM Biotin wells alternatively. Association and dissociation times were carefully determined to ensure full association and dissociation.
(§3) Raw kinetic data collected were processed with the Data Analysis software provided by the manufacturer using single reference subtraction in which buffer-only reference was subtracted (For GN13 analysis). Because GD20 analogs have a low level of background binding, we used a double reference subtraction (buffer-only reference and non-protein-loading reference) method to calculate their kinetics values. The resulting data were analyzed based on a 1:1 binding model from which kon and koff values were obtained and then Kd values were calculated.

GppNHp-bound Gαi1 = biological target: T2, GppNHp-bound Gαi1 (Homo sapiens, UniProt P63096); test: Bio-layer interferometry (BLI) binding; conditions: highest concentration tested
T2 construct: hexahistidine (N, cleaved yes); made in house; host or cells: Escherichia coli BL21(DE3)
T2 sequence (P63096 with tags, fused parts or gaps): as above
Description: as §1, §2, §3

[1] = biological target: T3, GTP- and GppNHp-bound Gαs Q227L mutant (Homo sapiens, UniProt P63092, Q227L); test: Adenylyl cyclase activation assay with oncogenic mutant; format: biochemical
T3 construct: made in house; host or cells: Escherichia coli BL21(DE3)
T3 sequence (P63092 7-380 isoform P63092-2 Q213L limits assumed): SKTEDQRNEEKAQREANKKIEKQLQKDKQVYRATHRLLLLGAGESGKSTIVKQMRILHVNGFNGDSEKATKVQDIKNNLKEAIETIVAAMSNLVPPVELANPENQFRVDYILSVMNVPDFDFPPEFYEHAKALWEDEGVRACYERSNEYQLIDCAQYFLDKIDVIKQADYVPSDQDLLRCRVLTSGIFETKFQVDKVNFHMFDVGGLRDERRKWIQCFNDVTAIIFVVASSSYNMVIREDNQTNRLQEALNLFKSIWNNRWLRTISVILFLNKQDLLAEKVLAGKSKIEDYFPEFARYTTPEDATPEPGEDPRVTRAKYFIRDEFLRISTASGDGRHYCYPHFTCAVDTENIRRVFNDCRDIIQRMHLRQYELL
Text: Gαs is one of the most frequently mutated G proteins in human cancer. Hotspot mutations in Gαs (Q227) disrupt its GTPase activity, thereby locking Gαs in the GTP-bound active conformation (Zachary et al., 1990).

GppNHp-bound Gαs = GppNHp-bound Gαs (Homo sapiens, UniProt P63092); test: Bio-layer interferometry (BLI) binding kinetics; design: hexahistidine (N, cleaved yes); made in house; host or cells: Escherichia coli BL21(DE3)
Description: as §1, §2, §3

Gαs/Gβγ = biological target: T4, Gαs/Gβγ (Homo sapiens, UniProt P63092); test: BRET2 based Gα Gβγ interaction assay in HEK293 cells (β2AR, isoproterenol); format: cell-based; conditions: pretreated 25 μM, 16 hours, 10 nM isoproterenol
T4 construct: expressed in transfected cells; host or cells: HEK293 cells
T4 sequence (P63092 1-380 isoform P63092-2): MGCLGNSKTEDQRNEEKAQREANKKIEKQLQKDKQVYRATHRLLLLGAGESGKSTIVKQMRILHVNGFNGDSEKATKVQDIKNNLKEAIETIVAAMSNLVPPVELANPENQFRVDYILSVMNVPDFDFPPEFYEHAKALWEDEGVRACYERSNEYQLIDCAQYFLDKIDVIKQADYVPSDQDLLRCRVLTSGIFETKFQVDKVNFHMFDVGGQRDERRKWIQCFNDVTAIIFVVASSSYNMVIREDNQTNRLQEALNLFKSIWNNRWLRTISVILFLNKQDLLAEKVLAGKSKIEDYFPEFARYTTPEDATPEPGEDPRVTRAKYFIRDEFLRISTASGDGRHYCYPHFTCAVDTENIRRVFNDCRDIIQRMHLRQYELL
Text: We next tested GD20-F10L in HEK 293 cells overexpressing both β2AR and Gαs/Gβγ. Rluc8 was inserted within a flexible loop region between the αB-αC helices of Gαs (FIG. 23J) and GFP2 was inserted at the N-terminus of Gγ2 to capture Gαβγ heterotrimer interaction. A decrease in the bioluminescence resonance energy transfer (BRET2) signal between labeled G protein subunits can detect Gαβγ dissociation (FIG. 21C) in live cells (Olsen et al., 2020). We examined Gαβγ trimer dissociation elicited by the GPCR agonist at various concentrations of cyclic peptides by monitoring the net BRET2 signal. In cells that were transiently transfected with a Gαs-coupled β2-adrenergic receptor (β2AR), GαsShort_Rluc8, […], and Gγ-GFP2, ISO application stimulated a basal net BRET response. […] This effect was GD20-F10L dose dependent (FIGS. 21D-21E). […] To assess the specificity of GD20-F10L at the G protein level, we tested it against the Gαi/Gβγ interaction. […]
8 hours after plating in 96-well assay plates, media was replaced with 100 μL of cyclic peptide dilutions in DMEM with 1% dialyzed FBS. […] Plates were then read in a TECAN Spark 20 M plate reader with 395 nm (RLuc8-coelenterazine 400a) and 510 nm (GFP2) emission filters, at integration times of 1 s per well. Plates were read serially six times, and measurements from the fourth read were used in all analyses. […]

| binding to GDP-bound Gαi1 (GDP-bound Gαi1) | binding to GppNHp-bound Gαi1 (GppNHp-bound Gαi1) | inhibition of Gαs Q227L mutant in the adenylyl cyclase activation assay [1] | koff (GppNHp-bound Gαs; GppNHp/Gαs) | kon (GppNHp-bound Gαs; GppNHp/Gαs) | Kd (GppNHp-bound Gαs; immobilized GppNHp-bound Gαs) | Compound | net BRET2 signal between Gαs and Gγ after isoproterenol (Gαs/Gβγ) |
| --- | --- | --- | --- | --- | --- | --- | --- |
| no detectable binding | no detectable binding | inhibited | 0.0513 s⁻¹ | 271000 M⁻¹ s⁻¹ | 190 ± 20 nM | CC[C@H](C)[C@@H]1NC(=O)[C@H](C)NC(=O)[C@H](Cc2ccc(O)cc2)NC(=O)[C@H](C(C)C)NC(=O)[C@H](CO)NC(=O)[C@H](CCC(=O)O)NC(=O)[C@H](Cc2ccccc2)NC(=O)[C@@H](Cc2ccc(O)cc2)NC(=O)CSC[C@@H](C(=O)NCC(N)=O)NC(=O)[C@H](CC(C)C)NC(=O)[C@H]([C@@H](C)O)NC(=O)CNC(=O)[C@H](Cc2c[nH]c3ccccc23)NC1=O [GN13] ({CH2CO}-[dY]FESVYAIWGTLCG-NH2; thioether N-13) | – |
| – | – | – | – | – | – | CC[C@H](C)[C@@H]1NC(=O)[C@H](CC(C)C)NC(=O)[C@@H](Cc2ccc(O)cc2)NC(=O)CSC[C@@H](C(=O)NCC(N)=O)NC(=O)[C@@H]2CCCN2C(=O)[C@H](CC(C)C)NC(=O)[C@H](CC(N)=O)NC(=O)[C@H](CC(C)C)NC(=O)[C@H](C)NC(=O)[C@H](Cc2c[nH]c3ccccc23)NC(=O)[C@H](CCC(N)=O)NC(=O)[C@H](CCCNC(=N)N)NC(=O)[C@H](Cc2ccccc2)NC(=O)[C@H]([C@@H](C)O)NC1=O [GD20-F10L] ({CH2CO}-[dY]LITFRQWALNLPCG-NH2; thioether N-14) | induced a greater net BRET2 signal |
